Results from PubChem BioAssay AID179 (DTP/NCI, 2004).
Calls of active or inactive are those of the source.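 Rule for the calls: active = compounds giving half or more protection of infected cells from virus-caused growth loss, again on retest; inactive = the rest.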 Where a SMILES comes first, the peptide text is derived from it. The star is where a group is joined. Boc = CC(C)(C)OC(=O)*; OBn = c1ccc(CO*)cc1; Bn = c1ccc(C*)cc1

System: CEM cells HIV-1 protection, formazan growth assay
Experiment: NCI AIDS Antiviral Assay
Details: for IC50: measured here: growth of uninfected CEM cells
Summary of the method: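 Human CEM cells, uninfected and HIV-1-infected, received five drug concentrations, and growth was read by soluble formazan assay. Compounds giving at least 50% protection were retested; reproducible 100% protection defined confirmed active.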

SMILES	EC50	IC50	outcome
COc1cc2c(cc1OC)C(=O)C1(C2)[C@H](c2ccccc2)C2C(=O)c3cc(OC)c(OC)cc3C2[C@H]1c1ccccc1 (stereo partly specified)	> 200 µM	> 200 µM	
CCN(CCCl)CCCCCNc1c2ccccc2nc2ccc(OC)cc12			inactive
Cc1cn([C@H]2C[C@H](NC(=O)N(O)C[C@H]3O[C@@H](n4cc(C)c(=O)[nH]c4=O)C[C@@H]3O)[C@@H](CO)O2)c(=O)[nH]c1=O	> 200 µM	> 200 µM	
C=CCNC(=S)NNC(=S)NCC=C	> 200 µM	23.4 µM	
c1ccc(-c2nnc3oc(-c4cccs4)nn23)cc1	> 100 µM	> 100 µM	
Nc1ncnc2c1ncn2C1OC(COP(=O)(O)CP(=O)(O)O)C(O)C1O (stereo unspecified)	> 200 µM	> 200 µM	
CCN(CC)CCOC(=O)c1cc2cc3cc(C(=O)OCCN(CC)CC)c(=O)oc3c(C)c2oc1=O	> 200 µM	> 200 µM	
Clc1ccc2c(c1)[nH]c1c2nc2sccn21			inactive
CCOP(=O)(OCC)/C(C#N)=C/c1cccc(Br)c1			inactive
O=c1[nH]c(=O)n(C2OC(CO)CC2F)cc1F (stereo unspecified)	> 200 µM	> 200 µM	
Cc1ccccc1C(C#N)/C(=N/NC(=O)C(=O)NN)C(=O)Nc1cccc(C(F)(F)F)c1 (stereo unspecified)	> 209 µM	> 209 µM	
N#CCCN1C(=O)CCC2(CCC(=O)N(CCC#N)C2=O)C1=O	> 794 µM	> 794 µM	
CC(=O)N(C)c1ccc2c(ccc[n+]2[O-])c1[N+](=O)[O-]	> 955 µM	> 955 µM	
Cn1c2c(c3ccccc31)CCN=C2C1CCCOC1=O (stereo unspecified)	> 200 µM	> 200 µM	
CC(CCCOC(c1ccccc1)(c1ccccc1)c1ccccc1)OC(=O)Nc1cc([N+](=O)[O-])cc([N+](=O)[O-])c1 (stereo unspecified)	> 12.9 µM	> 12.9 µM	
CC(=O)OC12c3ccccc3C(c3ccccc31)C1C(=O)N(Nc3ccccc3)C(=O)C12 (stereo unspecified)	> 200 µM	> 200 µM	
O=C1c2cccc([N+](=O)[O-])c2C(=O)N1CC[P+](c1ccccc1)(c1ccccc1)c1ccccc1	> 200 µM	> 200 µM	
O=[N+]([O-])c1cccnc1SSc1ncccc1[N+](=O)[O-]	> 200 µM	97.7 µM	
O=C1OC(OC/C(Br)=C(/Br)COC2OC(=O)C(Cl)=C2Cl)C(Cl)=C1Cl (stereo unspecified)	> 200 µM	3.47 µM	
c1ccc2c(c1)Cc1ccccc1-c1c-2[nH]c2ccccc12	> 200 µM	10.5 µM	
C[S+](C)CC(=O)c1ccc2c(c1)Sc1ccccc1O2	> 100 µM	2.04 µM	

SMILES	EC50	IC50	outcome
O=C(O)c1ccc(CS(=O)(=O)c2ccccc2C(=O)O)c([N+](=O)[O-])c1	> 692 µM	> 692 µM	
c1ccc(SC2CC[C@H]3CCCC[C@H]3O2)cc1 (stereo partly specified)			inactive
Nc1c(Br)cc2c([nH]c(=O)c3cc(Br)ccc32)c1Br	> 200 µM	38.9 µM	
CC(C)(C)c1ccc2c(c1)CNCCNCCNCc1cc(C(C)(C)C)ccc1OCC1(CO2)COc2ccc(C(C)(C)C)cc2CNCCNCCNCc2cc(C(C)(C)C)ccc2OC1	> 1.51 µM	0.813 µM	
CC(C)CCCC(C)[C@H]1CC[C@H]2[C@@H]3CC[C@H]4C[C@@H](CCC=C(c5cc(Cl)c(O)c(C(=O)OC(C)C)c5)c5cc(Cl)c(O)c(C(=O)OC(C)C)c5)CC[C@]4(C)[C@H]3CC[C@]12C (stereo partly specified)	67.6 µM	151 µM	
Cc1ccc(C2SCC(=O)N2c2ccc(-n3c(-c4ccccc4)nc4ccccc4c3=O)cc2)cc1 (stereo unspecified)	> 200 µM	10.7 µM	
Cc1cc(=O)[nH]c(NNC(C#N)c2cccc([N+](=O)[O-])c2)n1 (stereo unspecified)	> 45.7 µM	> 45.7 µM	
CC1=C(/C=C/C2=CC(=C\C(=O)O)/CC(C3=C(C)CCCC3(C)C)C2)C(C)(C)CCC1 (stereo unspecified)			inactive
C[C@]12CCC(=O)C(O)=C1CCC2=O			inactive
O=C1CCCN1C(=O)CS(=O)(=O)c1ccccc1	> 200 µM	> 200 µM	
COc1ccc(OC)c2c1C1CCC(=O)N1CN2C(C)=O (stereo unspecified)			inactive
O=c1[nH]c(-c2ccc([N+](=O)[O-])cc2)nc2ccc(Cl)cc12			inactive
CCOP(=O)(OCC)/C(C#N)=C/c1ccc([N+](=O)[O-])cc1	> 813 µM	575 µM	
CC(C)(C)c1cc2c3c(c1)C(C(F)(F)F)(C(F)(F)F)O[Te]3(C)OC2(C(F)(F)F)C(F)(F)F	> 31.6 µM	> 31.6 µM	
Nc1nc(N)c2nc(-c3ccco3)cnc2n1			inactive
O=CC1(C(O)C2SCCCS2)SCCCS1 (stereo unspecified)	> 100 µM	5.5 µM	
Cc1cc(N(CCC#N)S(C)(=O)=O)ccc1C=Nc1ccc(C(=O)NN2C(=O)/C(=C/c3ccc(N(CCC#N)CCC#N)cc3C)N=C2c2cc([N+](=O)[O-])ccc2Cl)cc1	> 42.7 µM	> 42.7 µM	
COc1cc2c3c(c1OC)-c1c(ccc4c1OCO4)CC3(C#N)N(C(=O)c1ccccc1)CC2 (stereo unspecified)			inactive
Cc1ccc(S(=O)(=O)NCNS(=O)(=O)c2ccc(C)cc2)cc1	> 200 µM	> 200 µM	
CC(=O)NC(CCSSCCC(NC(C)=O)C(=O)ON1C(=O)CCC1=O)C(=O)ON1C(=O)CCC1=O (stereo unspecified)	> 200 µM	> 200 µM	
Cc1cc(=O)n2[nH]nnc2n1	> 200 µM	> 200 µM	

SMILES	EC50	IC50	outcome
O=C(Nc1sccc1S(=O)(=O)c1ccccc1)c1ccccc1	> 20 µM	11.7 µM	
Cc1ccccc1C1=C/C(=C(\SS/C(C(=O)c2ccc(OCC(=O)O)c(Cl)c2Cl)=C2\C=C(c3ccccc3C)SS2)C(=O)c2ccc(OCC(=O)O)c(Cl)c2Cl)SS1	> 26.9 µM	> 26.9 µM	
CN(C)c1ccc(C=C(C(=O)c2ccccc2)C(=O)c2ccccc2)cc1	> 10.7 µM	> 10.7 µM	
COc1ccc(N=C(CS(=O)c2ccc(C)cc2)C(F)(F)F)cc1 (stereo unspecified)	> 200 µM	91.2 µM	
CC(=O)Nc1c(C(=N)C#N)ncn1CCO	> 200 µM	> 200 µM	
CC(=O)/C(=C/c1cccc(Cl)c1)C(=O)c1ccccc1	> 34.7 µM	17 µM	
CN(NC(=O)CCCl)C1=NCCCCN1	> 200 µM	> 200 µM	
CC(=O)NC(CCCCNC(=O)OCc1ccccc1)C(=O)NCc1ccccc1 (stereo unspecified)	> 87.1 µM	> 87.1 µM	
COc1cccc(NC(=S)/C(=C(\[O-])c2ccc([N+](=O)[O-])cc2)[n+]2ccc(C(C)C)cc2)c1	> 200 µM	> 200 µM	
CC(=O)Nc1ccc(C2[C@H]3C(=O)N(c4ccc(Cc5ccc(N6C(=O)[C@@H]7ON(c8ccccc8)C(c8ccc(NC(C)=O)cc8)[C@@H]7C6=O)cc5)cc4)C(=O)[C@H]3ON2c2ccccc2)cc1 (stereo partly specified)	> 6.03 µM	> 6.03 µM	
CCCCCCCCCCCCCCCCCCNC(=O)c1ccccc1[Se][Se]c1ccccc1C(=O)NCCCCCCCCCCCCCCCCCC	> 0.794 µM	> 0.794 µM	
O=c1c2cc([N+](=O)[O-])ccc2n2n1CCCC2	> 200 µM	> 200 µM	
COc1ccc(C(=O)O)c(Cc2ccc3ccccc3c2)c1			inactive
CC1(C)C2CCC(=O)C1CC2 (stereo unspecified)	> 200 µM	> 200 µM	
O=C1CCCCCCCCCCCC(=O)OCCO1	> 132 µM	> 132 µM	
Cc1cn(C2CC(COCc3ccccc3)N(CCO)O2)c(=O)[nH]c1=O (stereo unspecified)	> 200 µM	> 200 µM	
CC(C)CC(NC(=O)C(CCC(=O)OCc1ccccc1)NC(=O)OC(C)(C)C)C(=O)NC(COCc1ccccc1)C(=O)NC(Cc1ccccc1)C(=O)O (stereo unspecified) (Boc-E(OBn)LS(Bn)F-OH; configuration not given here)	> 200 µM	> 200 µM	
ON=C1CCCCC(=NO)CCCC1	> 200 µM	> 200 µM	
COc1c2c3c4c(c(OC)c(=O)c5c(O)c(Br)c(OC)c(c6c(OC)c(Br)c(O)c(c1=O)c36)c54)C(C(C)=O)=C(C)C2	> 13.8 µM	1.45 µM	
Cc1ccc(-n2nnc3c(NNc4ccccc4)n[nH]c(=O)c32)cc1	> 200 µM	25.7 µM	
COc1ccc(NCC/C=C\[Si](C)(C)C)cc1			inactive

SMILES	EC50	IC50	outcome
C/C(C=C(C#N)C#N)=C\c1ccc([N+](=O)[O-])cc1	> 11.5 µM	> 11.5 µM	
O=C(O)C(=O)O	> 427 µM	> 427 µM	
C[C@@H]1C[C@H]2[C@@H]3C[C@H](F)C4=CC(=O)C=C[C@]4(C)[C@@]3(F)[C@@H](O)C[C@]2(C)C1C(=O)COC(=O)c1cccc2c(=O)c3ccccc3[nH]c12 (stereo partly specified)	> 100 µM	2 µM	
CCOc1ccc(N=NC2C(=O)N(C(=O)CC(=O)Nc3ccc(C)cc3)N=C2C)cc1 (stereo unspecified)	> 200 µM	10.5 µM	
O=C(NN1CCOC1=O)OCCCl	> 200 µM	> 200 µM	
CC=CCOc1cc(NC(=S)OC(C)C)ccc1Cl (mixture of isomers)	0.126 µM	24 µM	
c1ccc(-c2csc3[nH]c4ccccc4[n+]23)cc1			inactive
O=[N+]([O-])c1ccc(-n2nnc3ccccc32)nc1	> 200 µM	> 200 µM	
CC#CC(=O)Nc1ccccc1CC(c1c[nH]c2ccccc12)c1c[nH]c2ccccc12	> 35.5 µM	19.1 µM	
CCCCCCCCCCCCCCCCOC1OC(CS(=O)(=O)O)C(O)C(O)C1O (stereo unspecified)	> 138 µM	40.7 µM	
CCOC(=O)CN(c1sc(C)c(C)c1C(=O)OCC)S(=O)(=O)c1ccc(C)cc1	> 200 µM	11.7 µM	
O=C(OCCN1CCCCCC1)C(c1ccsc1)C1CCCCC1 (stereo unspecified)	> 200 µM	35.5 µM	
Cc1c2n(c3ccccc13)CC1C2N(C)OC1(C)C (stereo unspecified)	> 263 µM	> 263 µM	
Cc1cn(C2CC(/[N+]([O-])=N/Nc3ccc([N+](=O)[O-])cc3)C(CO[Si](C)(C)C(C)(C)C)O2)c(=O)[nH]c1=O (stereo unspecified)	> 200 µM	7.41 µM	
CSc1cc(-c2ccc(Cl)cc2)s[s+]1	50.1 µM	115 µM	
O=C(CSc1nc2ccccc2c(=O)n1-c1ccccc1)N=Nc1c(O)[nH]c2ccc(Br)cc12	61.7 µM	85.1 µM	
CSC1=N/C(=C\c2ccccc2)C(=O)N1CN1CCOCC1	> 200 µM	87.1 µM	
COc1cccc(C2c3cc4c(cc3OC(N3CCOCC3)C2C)OCO4)c1OC (stereo unspecified)	> 200 µM	1.7 µM	
CN(C)c1ccc(/C=C(\C#N)c2ccc(Cl)cc2)c(Cl)c1	> 50.1 µM	4.9 µM	
